These results are taken from article PMC7249037, “Phenylpyrazalopyrimidines as Tyrosine Kinase Inhibitors: Synthesis, Antiproliferative Activity, and Molecular Simulations” (Molecules, 2020).

“And” between values parts separate entries of the source, which are not always exact repeats. Equal entries are not always repeated.

For assay [1], the target named is T1, c-Src (Homo sapiens, UniProt P12931). Nature of the assay: c-Src kinase activity assay (Transcreener ADP fluorescence intensity). Type of assay: biochemical. Details: 0.7 nM of His6-Src kinase domain in kinase buffer; His6. Conditions: in vitro Src kinase inhibition, His6-Src kinase domain, triplicate. The protocol: In summary, the kinase reaction was started in the 384-well low volume black microplate with the incubation of 2.5 μL of the reaction cocktail (0.7 nM of His6-Src kinase domain in kinase buffer) with 2.5 μL of prediluted compounds (dissolved in 10% DMSO, 4× target concentration) for 10 min at room temperature using microplate shaker. The reaction cocktail was made using the kinase buffer HEPES (200 mM, pH 7.5), MgCl2 (16 mM), EGTA (8 mM), DMSO (4%), Brij-35 (0.04%), and 2-mercaptoethanol (43 mM). The kinase reaction was started by adding 5 μL of ATP/substrate (40 μM/600 μM) cocktail and incubated for 30 min at room temperature on a microplate shaker. Src optimal peptide ([…]) was used as the substrate for the kinase reaction. The kinase reaction was stopped by adding 10 μL of the 1× ADP Detection Mixture to the enzyme reaction mixture and mixed using a plate shaker. The mixture was incubated at room temperature for 1 h, and the fluorescence intensity was measured. The 1× ADP Detection Mixture was prepared by adding ADP^2 Antibody-IRDyeR QC-1 (10 μg/mL) and ADP Alexa594 Tracer (8 nM) to Stop and Detect Buffer B(1×). The fluorescence Intensity measurements were performed using a fluorescence intensity optical module using the excitation of 580 nm and emission of 630 nm with bandwidths of 10 nm by Optima, BMG Labtech microplate reader (BMG Labtech, Ortenberg, Germany). The IC50 values of the compounds were calculated using ORIGIN 6.0 (Origin Lab, Microcal Software, Inc. Northhampton, MA, USA) software. […] All the experiments were carried out in triplicate.
Target sequence in this assay (P12931 270-523 limits assumed): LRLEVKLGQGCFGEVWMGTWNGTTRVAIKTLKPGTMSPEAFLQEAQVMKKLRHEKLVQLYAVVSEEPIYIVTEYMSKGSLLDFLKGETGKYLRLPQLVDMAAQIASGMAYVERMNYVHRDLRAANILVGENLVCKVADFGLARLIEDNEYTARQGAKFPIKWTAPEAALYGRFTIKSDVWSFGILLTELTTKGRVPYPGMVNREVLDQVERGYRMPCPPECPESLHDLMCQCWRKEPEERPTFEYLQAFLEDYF

Another assay relates to SK-OV-3 cells. Nature of the assay: Cell proliferation assay (CellTiter 96). Format: cell-based, human. Particulars: for reducing the cell proliferation (in words): 24–96 h; for IC50: SK-OV-3 cells, 72 h incubation. On the procedure:
(§1) Human leukemia cell line CCRF-CEM (ATCC no. CCL-119), human ovarian adenocarcinoma cell line SK-OV-3 (ATCC no. HTB-77), human breast carcinoma cell line MDA-MB-231 (ATCC no.HTB-26), and human colon adenocarcinoma cell line HT-29 (ATCC no. HTB-38) were obtained from American Type Culture Collection. Cells were grown on 75 cm^2 cell culture flasks with […] (for leukemia cells) and EMEM (Eagle’s minimum essential medium) (for SK-OV-3, HT-29, MDA-MB-231 cells), supplemented with 10% fetal bovine serum (FBS), and 1% penicillin-streptomycin solution (10,000 units of penicillin and 10 mg of streptomycin in 0.9% NaCl) in a humidified atmosphere of 5% CO2, 95% air at 37 °C.
(§2) The cell proliferation assay was carried out using a CellTiter 96 aqueous one-solution cell proliferation assay kit (Promega, Madison, WI, USA). Briefly, upon reaching about 75–80% confluence, 5000 cells/well were plated in 96-well microplate in 100 μL of the medium. After seeding for 24 h, the cells were treated with 50 µM compound in triplicate. Doxorubicin (10 µM) was used as a positive control. At the end of the sample exposure period (72 h), 20 µL of CellTiter 96 aqueous solution was added. The plate was returned to the incubator for 1 h in a humidified atmosphere at 37 °C. The absorbance of the formazan product was measured at 490 nm using a microplate reader. The blank control was recorded by measuring the absorbance at 490 nm with wells containing medium mixed with CellTiter 96 aqueous solution but no cells. The percentage of cell survival was calculated as the OD value of cells treated with test compound − OD value of culture medium/(OD value of control cells − OD value of culture medium) × 100%. The same strategy was used for generating a dose-response graph for compound 10.

The subject of the next assay is HT-29 cells. Briefly: Cell proliferation assay (CellTiter 96). Type of assay: cell-based, human. Conditions: for reducing the cell proliferation (in words): 24–96 h. The protocol: as §1, §2
In a further assay the test system is CCRF-CEM cells. Nature of the assay: Cell proliferation assay (CellTiter 96). Type of assay: cell-based, human. Particulars: for reducing the cell proliferation (in words): 24–96 h. The protocol: as §1
as §2, with “At the end of the sample exposure period (72 h), 20 µL of CellTiter 96 aqueous solution was added.” left out

A further assay concerns MDA-MB-231 cells. Nature of the assay: Cell proliferation assay (CellTiter 96). Format: cell-based, human. Particulars: for reducing the cell proliferation (in words): 24–96 h. On the procedure: as §1
as §2, with “At the end of the sample exposure period (72 h), 20 µL of CellTiter 96 aqueous solution was added.” left out

Assay [2] concerns the target T1, c-Src. Nature of the assay: Kinase panel, radiometric filter-binding (Reaction Biology). Format: biochemical. Details: purchased Invitrogen (assay run by Reaction Biology Corporation) P3044. Particulars: 200 µM ATP, values above 1 µM estimated from curve fit.
Target sequence in this assay (P12931 whole entry, the tested form may be a part): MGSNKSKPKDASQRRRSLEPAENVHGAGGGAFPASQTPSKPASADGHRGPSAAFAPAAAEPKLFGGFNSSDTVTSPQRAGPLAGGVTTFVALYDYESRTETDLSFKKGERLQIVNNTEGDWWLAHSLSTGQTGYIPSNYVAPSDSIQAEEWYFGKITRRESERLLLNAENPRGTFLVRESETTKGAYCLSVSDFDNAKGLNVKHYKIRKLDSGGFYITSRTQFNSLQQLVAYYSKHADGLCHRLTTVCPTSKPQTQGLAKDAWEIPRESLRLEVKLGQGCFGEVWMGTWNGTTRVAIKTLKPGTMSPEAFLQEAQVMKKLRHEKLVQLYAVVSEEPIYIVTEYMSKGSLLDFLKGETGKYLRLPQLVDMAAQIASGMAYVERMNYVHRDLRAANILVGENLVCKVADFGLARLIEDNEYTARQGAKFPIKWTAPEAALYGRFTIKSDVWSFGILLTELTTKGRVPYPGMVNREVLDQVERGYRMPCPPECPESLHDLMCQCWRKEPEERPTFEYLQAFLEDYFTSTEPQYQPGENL
The target in a further assay is T2, Akt1 (Homo sapiens, UniProt P31749).
T2 construct: purchased Invitrogen (assay run by Reaction Biology Corporation) PR3878D
Described as above. Type of assay: biochemical. Conditions: 200 µM ATP, NA = not active, values above 1 µM estimated from curve fit. The protocol:
Required cofactors were added individually to each kinase reaction. […] The serial dilution was conducted by Integra Viaflo Assist in DMSO.

The next assay addresses T3, Btk (Homo sapiens, UniProt Q06187).
T3 construct: purchased Invitrogen (assay run by Reaction Biology Corporation) PV3363
The assay is described as above. Conditions: 200 µM ATP, values above 1 µM estimated from curve fit. Type of assay: biochemical.

For another assay, the target named is T4, Lck (Homo sapiens, UniProt P06239).
T4 construct: purchased Invitrogen (assay run by Reaction Biology Corporation) P3043
The assay is described as above. Type of assay: biochemical. Particulars: 200 µM ATP, values above 1 µM estimated from curve fit.

T3 sequence (Q06187 whole entry): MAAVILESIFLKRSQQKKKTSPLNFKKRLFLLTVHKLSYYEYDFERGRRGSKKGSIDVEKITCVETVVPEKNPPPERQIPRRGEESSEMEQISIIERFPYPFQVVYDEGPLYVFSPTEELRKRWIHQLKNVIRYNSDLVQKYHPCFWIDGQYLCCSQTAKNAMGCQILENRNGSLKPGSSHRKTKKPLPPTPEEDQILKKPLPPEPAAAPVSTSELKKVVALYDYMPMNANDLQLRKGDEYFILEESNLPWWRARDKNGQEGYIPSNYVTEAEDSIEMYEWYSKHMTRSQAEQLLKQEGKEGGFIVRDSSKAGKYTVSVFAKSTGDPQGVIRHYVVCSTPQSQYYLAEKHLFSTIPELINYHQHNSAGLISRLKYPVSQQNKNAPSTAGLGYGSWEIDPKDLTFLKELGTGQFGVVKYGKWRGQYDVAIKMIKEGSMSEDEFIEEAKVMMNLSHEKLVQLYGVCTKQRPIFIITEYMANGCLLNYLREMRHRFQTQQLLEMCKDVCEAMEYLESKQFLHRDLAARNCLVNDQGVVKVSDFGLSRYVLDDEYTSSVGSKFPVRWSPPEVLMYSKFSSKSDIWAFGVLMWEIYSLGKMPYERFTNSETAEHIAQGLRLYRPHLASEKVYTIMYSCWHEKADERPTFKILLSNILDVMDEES
T4 sequence (P06239 whole entry): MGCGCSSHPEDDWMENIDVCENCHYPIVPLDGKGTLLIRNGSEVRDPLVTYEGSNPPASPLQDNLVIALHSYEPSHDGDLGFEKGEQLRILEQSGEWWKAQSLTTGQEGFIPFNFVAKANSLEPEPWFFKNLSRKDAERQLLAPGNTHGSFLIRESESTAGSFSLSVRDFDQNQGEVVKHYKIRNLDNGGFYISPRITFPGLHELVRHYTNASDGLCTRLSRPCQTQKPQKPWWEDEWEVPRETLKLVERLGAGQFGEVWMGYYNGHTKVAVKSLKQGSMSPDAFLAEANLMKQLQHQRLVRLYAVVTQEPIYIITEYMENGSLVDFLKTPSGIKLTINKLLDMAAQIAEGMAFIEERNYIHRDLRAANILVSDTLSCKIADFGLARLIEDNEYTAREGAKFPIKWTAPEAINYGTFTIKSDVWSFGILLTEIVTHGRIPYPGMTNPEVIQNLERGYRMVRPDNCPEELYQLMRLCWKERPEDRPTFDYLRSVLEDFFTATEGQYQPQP
T2 sequence (P31749 whole entry): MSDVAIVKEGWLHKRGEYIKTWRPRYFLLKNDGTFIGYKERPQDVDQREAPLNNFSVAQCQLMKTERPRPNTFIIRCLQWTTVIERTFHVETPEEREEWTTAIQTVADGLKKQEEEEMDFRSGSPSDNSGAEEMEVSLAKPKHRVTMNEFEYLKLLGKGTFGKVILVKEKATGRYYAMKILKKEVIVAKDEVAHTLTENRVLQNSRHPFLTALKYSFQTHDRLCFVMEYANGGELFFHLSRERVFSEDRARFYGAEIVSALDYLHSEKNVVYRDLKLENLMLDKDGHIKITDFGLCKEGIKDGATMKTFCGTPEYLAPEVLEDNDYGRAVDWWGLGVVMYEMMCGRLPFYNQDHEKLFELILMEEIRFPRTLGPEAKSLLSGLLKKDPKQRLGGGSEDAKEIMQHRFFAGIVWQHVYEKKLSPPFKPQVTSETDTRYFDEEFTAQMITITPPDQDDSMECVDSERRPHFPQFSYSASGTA

The IC50 is the concentration that gives 50% inhibition. With `COc1ccc(C=C(C(C)=O)n2nc(-c3ccccc3)c3c(N)ncnc32)cc1` [Compound 6, 3-(4-Amino-3-phenyl-1H-pyrazolo[3,4-d]pyrimidin-1-yl)-4-(4-methoxyphenyl)but-3-en-2-one], at c-Src [1], the IC50 is 21.7 µM.
As to `CC(=O)Cn1nc(-c2ccccc2)c2c(N)ncnc21` [Compound 2, 1-(4-Amino-3-phenyl-1H-pyrazolo[3,4-d]pyrimidin-1-yl)propan-2-one], the “reducing the cell proliferation (in words)” value was “inactive” in the assay on SK-OV-3 cells (SK-OV-3, 50 µM); “inactive” with HT-29 cells (HT-29, 50 µM); “inactive” in the assay on CCRF-CEM cells (50 µM); “inactive” in the assay on MDA-MB-231 cells (MDA-MB-231, 50 µM).
For orientation: inhibition means how much of the control response was suppressed. Read a low inhibition as a weak effect. Turning to `CC(=O)C(=Cc1ccc(Cl)cc1)n1nc(-c2ccccc2)c2c(N)ncnc21` [Compound 10, 3-(4-Amino-3-phenyl-1H-pyrazolo[3,4-d]pyrimidin-1-yl)-4-(4-chlorophenyl)but-3-en-2-one], the IC50 on c-Src [2] is 60.4 µM and 64.1 µM; on Akt1 it was over 150 µM; in the assay with SK-OV-3 cells (Homo sapiens), 25.5 µM; on Btk, 90.5 µM and 95.4 µM; at Lck it was 110 µM. The inhibition at 50 µM in the assay on SK-OV-3 cells (Homo sapiens, SK-OV-3, 50 µM, 96 h) was found to be 79%; in the assay with HT-29 cells (Homo sapiens, HT-29, 50 µM, 96 h), 90%; in the assay on CCRF-CEM cells (Homo sapiens, 50 µM, 96 h) it was 79%; in the assay on MDA-MB-231 cells (Homo sapiens, MDA-MB-231, 50 µM, 96 h), 60%.
Take `CC(=O)C(=Cc1ccc(C)cc1)n1nc(-c2ccccc2)c2c(N)ncnc21` [Compound 3, 3-(4-Amino-3-phenyl-1H-pyrazolo[3,4-d]pyrimidin-1-yl)-4-p-tolylbut-3-en-2-one]: at c-Src [1], it took 32.9 µM to reach half-maximal inhibition (IC50).
Take `CC(=O)C(=Cc1cccc([N+](=O)[O-])c1)n1nc(-c2ccccc2)c2c(N)ncnc21` [Compound 9, 3-(4-Amino-3-phenyl-1H-pyrazolo[3,4-d]pyrimidin-1-yl)-4-(3-nitrophenyl)but-3-en-2-one]: the “reducing the cell proliferation (in words)” value in the assay on SK-OV-3 cells (SK-OV-3, 50 µM) is “inactive”; in the assay with HT-29 cells (HT-29, 50 µM), “inactive”; in the assay on CCRF-CEM cells (50 µM) it was “inactive”; with MDA-MB-231 cells (MDA-MB-231, 50 µM) it was “inactive”.
In turn, `CC(=O)C(=Cc1ccc(Cl)cc1Cl)n1nc(-c2ccccc2)c2c(N)ncnc21` [Compound 11, 3-(4-Amino-3-phenyl-1H-pyrazolo[3,4-d]pyrimidin-1-yl)-4-(2,4-dichlorophenyl)but-3-en-2-one] yielded an IC50 in the assay with SK-OV-3 cells (Homo sapiens) of 34.3 µM.
As for `CC(=O)C(=Cc1ccccc1Cl)n1nc(-c2ccccc2)c2c(N)ncnc21` [Compound 12, 3-(4-Amino-3-phenyl-1H-pyrazolo[3,4-d]pyrimidin-1-yl)-4-(2-chlorophenyl)but-3-en-2-one], the “reducing the cell proliferation (in words)” value was “inactive” in the assay on SK-OV-3 cells (SK-OV-3, 50 µM); “inactive” in the assay on HT-29 cells (HT-29, 50 µM); “inactive” in the assay on CCRF-CEM cells (50 µM); “inactive” in the assay on MDA-MB-231 cells (MDA-MB-231, 50 µM).
`COc1cccc2c1C(=O)c1c(O)c3c(c(O)c1C2=O)C[C@@](O)(C(=O)CO)C[C@@H]3O[C@H]1C[C@H](N)[C@H](O)[C@H](C)O1` [Dox, Doxorubicin, reference compound]: the inhibition at 1 µM in the assay on SK-OV-3 cells (Homo sapiens, SK-OV-3, Dox positive control (1 µM in Figure 3, 10 µM in method), 96 h) worked out at 73%; with HT-29 cells (Homo sapiens, HT-29, Dox positive control (1 µM in Figure 3, 10 µM in method), 96 h), 75%; with CCRF-CEM cells (Homo sapiens, Dox positive control (1 µM in Figure 3, 10 µM in method), 96 h) it was 73%; in the assay on MDA-MB-231 cells (Homo sapiens, MDA-MB-231, Dox positive control (1 µM in Figure 3, 10 µM in method), 96 h), 64%.
At c-Src [1], `CC(=O)/C(=C\c1ccc(-c2ccccc2)cc1)n1nc(-c2ccccc2)c2c(N)ncnc21` [Compound 5, 3-(4-Amino-3-phenyl-1H-pyrazolo[3,4-d]pyrimidin-1-yl)-4-p-biphenylbut-3-en-2-one] displayed an IC50 of 192 µM.
In the case of `CC(=O)C(=Cc1cccc(C)c1)n1nc(-c2ccccc2)c2c(N)ncnc21` [Compound 4, 3-(4-Amino-3-phenyl-1H-pyrazolo[3,4-d]pyrimidin-1-yl)-4-m-tolylbut-3-en-2-one], the IC50 against c-Src [1] stood at 24.7 µM.
As to `CC(=O)C(=Cc1ccc(N(C)C)cc1)n1nc(-c2ccccc2)c2c(N)ncnc21` [Compound 7, 3-(4-Amino-3-phenyl-1H-pyrazolo[3,4-d]pyrimidin-1-yl)-4-(4-(dimethylamino)phenyl)but-3-en-2-one], the “reducing the cell proliferation (in words)” value in the assay on SK-OV-3 cells (SK-OV-3, 50 µM) was “inactive”; in the assay with HT-29 cells (HT-29, 50 µM) it was “inactive”; in the assay on CCRF-CEM cells (50 µM), “inactive”; in the assay with MDA-MB-231 cells (MDA-MB-231, 50 µM), “inactive”. Half-maximal inhibition against c-Src [1] (IC50) required 36.9 µM.
